Test results as given in PMC8562773, “Perfluoroalkyl Carboxylic Acids Interact with the Human Bile Acid Transporter NTCP” (Livers, 2021).
Several values for one entry are separate records, joined by “and”; a condition that tells them apart may be missing. Equal values may be shown once. Read-outs that look alike come from different tables or passages of the source.

Experiments:
[1] = target: T1, human Na+/taurocholate cotransporting polypeptide (NTCP) (Homo sapiens, UniProt Q14973); assay: Inhibition of NTCP-mediated [3H]-taurocholate uptake in NTCP-expressing HEK293 cells; format: cell-based; conditions: for IC50 / inhibition of NTCP-mediated taurocholate uptake: 1 μM [3H]-taurocholate, 1 min, 37 °C; for IC50: sodium-containing buffer, 3 independent experiments; for inhibition of NTCP-mediated taurocholate uptake / statistically significant inhibition of taurocholate uptake: 10 μM PFCA; for inhibition of NTCP-mediated taurocholate uptake: NTCP-HEK293; for statistically significant inhibition of taurocholate uptake: 1 μM taurocholate, p < 0.05 vs control
T1 construct: containing the human NTCP open reading frame with a C-terminal 6-His tag; expressed in transfected cells
T1 sequence (Q14973 1-349): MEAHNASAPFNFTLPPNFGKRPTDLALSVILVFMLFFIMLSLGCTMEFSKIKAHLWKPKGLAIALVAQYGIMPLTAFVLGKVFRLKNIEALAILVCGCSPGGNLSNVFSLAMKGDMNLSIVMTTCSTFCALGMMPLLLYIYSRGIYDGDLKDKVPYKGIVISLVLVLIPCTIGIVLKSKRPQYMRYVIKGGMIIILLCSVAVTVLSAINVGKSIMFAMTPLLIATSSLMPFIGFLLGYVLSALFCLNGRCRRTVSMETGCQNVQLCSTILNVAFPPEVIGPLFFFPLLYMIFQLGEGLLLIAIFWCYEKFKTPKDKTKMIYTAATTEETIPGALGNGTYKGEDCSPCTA
Procedure: (§1) Flp-In™-293 (HEK293) cells were purchased from Thermo Fisher Scientific (Waltham, MA, USA) and grown at 37 °C in a humidified 5% CO2 atmosphere in Dulbecco’s Modified Eagle’s Medium (DMEM) obtained from the American Type Culture Collection (ATCC, Manassas, VA, USA: 30-2002). The medium was supplemented with 10% fetal bovine serum (FBS) (Hyclone, Logan, UT, USA), and 100 U/mL penicillin, 100 μg/mL streptomycin (Thermo fisher Scientific). The pcDNA5/FRT plasmid containing the human NTCP open reading frame with a C-terminal 6-His tag was used to generate a stable NTCP-expressing cell line using hygromycin selection. A single clone was isolated using a cloning cylinder and cultivated in the above DMEM with the addition of 500 μg/mL hygromycin (Thermo Fisher Scientific). For transport experiments, cells were plated on poly-D-lysine-coated 24-well plates at 300,000 cells per well for uptake experiments after 48 h or at 200,000 cells per well for uptake experiments after 72 h. Uptake experiments and LC-MS/MS analysis were performed at the time points indicated in the figure legends as previously described.
To investigate whether PFCAs would interact with the human Na^+/taurocholate cotransporting polypeptide (NTCP), we determined to what extent perfluorinated carboxylic acids with chain lengths from 3 to 18 carbon atoms (C3 to C18) would inhibit NTCP-mediated taurocholate uptake. For these experiments, we measured the uptake of 1 μM taurocholate in the presence and absence of 10 or 100 μM of each of the PFCAs.
Figure 1. […] Uptake was measured in sodium-containing (NaCl) or sodium-free (ChCl) buffer for 1 min at 37 °C and corrected for protein. Uptake then was normalized to control (NaCl) and individual values of 1 or 2 experiments performed in triplicates are presented. Bars represent the mean ± SD, asterisks indicate significant differences to the control (NaCl) at p < 0.05.
For these experiments, NTCP-mediated uptake of 1 μM taurocholate was measured in the absence and presence of increasing concentrations of perfluorinated compounds. For PFOA and PFNA, the concentrations ranged from 0.1 to 1000 μM, while the concentrations for PFDA were between 0.1 and 100 μM, due to solubility limitations.
Figure 2. […] Uptake of 1 μM [^3H]-taurocholate was measured into NTCP-expressing HEK293 cells in the absence or presence of increasing concentrations of (A) perfluorooctanoic acid (PFOA), (B) perfluorononanoic acid (PFNA), or (C) perfluorodecanoic acid (PFDA). Uptake was measured for 1 min at 37 °C in a sodium-containing buffer and corrected for protein. After conversion of the data to percent of control, IC50 values were calculated using GraphPad Prism V9 using the “One site-Fit logIC50” equation from 3 independent experiments performed in triplicates. The 95% confidence intervals are given in parentheses.

[2] = target: T1, human Na+/taurocholate cotransporting polypeptide (NTCP); assay: Inhibition kinetics of NTCP-mediated taurocholate transport in NTCP-expressing HEK293 cells; format: cell-based; conditions: for type of inhibition of NTCP-mediated taurocholate uptake: inhibition kinetics, best fit
Procedure: as §1
Figure 3. Kinetics of taurocholate uptake in the absence and presence of PFOA, PFNA, and PFDA. Uptake of increasing concentrations of [^3H]-taurocholate into NTCP-expressing HEK293 cells was measured for 15 s (within the initial linear rate) at 37 °C in a sodium-containing buffer in the absence or presence of 10 and 100 μM of (A) PFOA, (B) PFDA, or (C) PFNA. After correction for protein, the results were analyzed using GraphPad Prism V9 using the “Enzyme kinetics–Inhibition” equations. […] Mean ± SD values of two independent experiments performed in triplicate are shown.

[3] = target: T2, human NTCP (Homo sapiens, UniProt Q14973); assay: Sodium-dependent NTCP-mediated uptake of PFCAs into NTCP-expressing HEK293 cells (LC-MS/MS); format: in vitro ADME; conditions: for transport by NTCP (substrate, words): sodium-dependent uptake in NTCP-HEK293
T2 construct: containing the human NTCP open reading frame with a C-terminal 6-His tag; expressed in transfected cells
T2 sequence (Q14973 1-349): T1 sequence (Q14973 1-349)
Procedure: as §1
To resolve whether PFOA, PFNA, and PFDA were substrates of NTCP, we measured the transport of these compounds. […] To better characterize this transport, we wanted to perform kinetics experiments and determine the Km and Vmax values for the three compounds. Therefore, in Figure 4, we determined the initial linear rate conditions in which to perform the kinetics experiments. We evaluated the time-dependent uptake of PFOA, PFNA, and PFDA at 10 and 300 μM in NTCP-expressing HEK293 cells in sodium-containing and sodium-free buffer. While there is a time-dependent uptake of all three PFCAs, most likely due to organic anion transporters expressed in HEK293 cells, NTCP only transports its substrates in the presence of sodium. Therefore, we calculated the net sodium-dependent uptake. Based on the time-dependent sodium-dependent uptake results shown in Figure 4, we used 20 s for PFOA (Figure 4A), 30 s for PFNA (Figure 4B), and 1 min for PFDA (Figure 4C) to perform the concentration-dependent uptake kinetics.
Figure 4. Time dependency of NTCP-mediated PFOA, PFNA, and PFDA uptake. Uptake of (A) perfluorooctanoic acid (PFOA), (B) perfluorononanoic acid (PFNA), or (C) perfluorodecanoic acid (PFDA) was measured in NTCP-expressing HEK293 cells in sodium-containing (NaCl; solid lines) or sodium-free (ChCl; dotted lines) buffer at the indicated times at 37 °C and corrected for protein. The net sodium-dependent uptake (net; dashed lines) is also shown. The results are presented as means ± SD of two combined independent experiments performed in triplicates.
For the concentration-dependent uptake of […], we were limited by solubility and could only determine uptake up to a concentration of 1 mM. […] Therefore, no kinetic constants could be calculated for PFDA.
Figure 5. Kinetics of NTCP-mediated PFOA and PFNA uptake. Uptake of increasing concentrations of (A) perfluorooctanoic acid (PFOA) or (B) perfluorononanoic acid (PFNA) was measured at 37 °C for 20 (PFOA) or 30 s (PFNA) in NTCP-expressing HEK293 cells in sodium-containing or sodium-free buffer and corrected for protein. Net uptake was calculated by subtracting uptake in the sodium-free medium from uptake in the sodium-containing medium. Values are mean ± SD of three independent experiments parformed in triplicates. Curves were fit using the Michaelis–Menten equation in GraphPad Prism V9.

[4] = tested on: NTCP; design: method as in PMID 26001962; conditions: perfluoroalkyl sulfonates, previously obtained; cited from earlier work
[5] = humans; cited from earlier work
[6] = design: method as in PMID 33201517; conditions: laboratory mice and non-human primates; cited from earlier work
[7] = design: method as in PMID 33201517, PMID 18353799; conditions: laboratory rodents; cited from earlier work
[8] = competitive inhibition fit, taurocholate uptake 15 s, 37 °C, 0, 10 and 100 μM PFCA, table: 95% CI in parentheses, read-out: Ki
[9] = in presence of 10 μM PFCA, 95% CI in parentheses
[10] = in presence of 100 μM PFCA, 95% CI in parentheses

| Compound | IC50 [1] | Vmax of taurocholate uptake [2, 9] | Vmax of taurocholate uptake [2, 10] | type of inhibition of NTCP-mediated taurocholate uptake [2] | transport by NTCP (substrate, words) [3] | Km [4] | also measured |
| --- | --- | --- | --- | --- | --- | --- | --- |
| O=C(O)C(F)(F)C(F)(F)C(F)(F)C(F)(F)C(F)(F)C(F)(F)C(F)(F)C(F)(F)F [PFNA, perfluorononanoic acid] | 7.5 µM | 3.5 (3.2–3.7) nmol/mg·min | 3.1 (2.5–4.1) nmol/mg·min | competitive inhibitors | can transport | – | inhibition of NTCP-mediated taurocholate uptake [1]: 60–70%; Ki [2, 8]: 12.3 µM and 12 µM; Vmax of sodium-dependent NTCP-mediated PFCA uptake ([3]; net sodium-dependent uptake, 37 °C, 20 s (PFOA) or 30 s (PFNA)): 670 ± 391 nmol/mg/min; Km ([3]; net sodium-dependent uptake, 37 °C, 20 s (PFOA) or 30 s (PFNA), PFNA value a rough estimate, saturation not reached, read-out: Km of sodium-dependent NTCP-mediated PFCA uptake): 5300 ± 3500 µM |
| O=S(=O)(O)C(F)(F)C(F)(F)C(F)(F)C(F)(F)F [PFBS, perfluorobutane sulfonate] | – | – | – | – | – | 39.6 µM | – |
| O=C(O)C(F)(F)C(F)(F)C(F)(F)C(F)(F)C(F)(F)C(F)(F)C(F)(F)F [PFOA, perfluorooctanoic acid] | 28 µM | 3.0 (2.8–3.2) nmol/mg·min | 2.8 (2.6–3.1) nmol/mg·min | competitive inhibitors | can transport | – | statistically significant inhibition of taurocholate uptake [1]: statistically significant inhibitors at 10 μM, but to a lesser extent; Ki [2]: 17 µM; Ki value lower than Km value ([3]; Ki (taurocholate uptake inhibition) versus Km (own transport)): about 100 fold; serum elimination half-life [5]: several years; serum elimination half-life [6]: days to weeks |
| C[C@H](CCC(=O)NCCS(=O)(=O)O)[C@H]1CC[C@H]2[C@@H]3[C@H](O)C[C@@H]4C[C@H](O)CC[C@]4(C)[C@H]3C[C@H](O)[C@]12C [taurocholate, reference compound] | – | – | – | – | – | – | Vmax of taurocholate uptake ([2]; concentration of PFCA 0 (control of each PFCA series), 95% CI in parentheses): 2.9 (2.7–3.2) nmol/mg·min and 3.2 (2.9–3.4) nmol/mg·min and 3.5 (3.2–3.8) nmol/mg·min; Km ([2]; concentration of PFCA 0 (control of each PFCA series), 95% CI in parentheses, read-out: Km of taurocholate uptake): 12 µM and 16 µM |
| O=S(=O)(O)C(F)(F)C(F)(F)C(F)(F)C(F)(F)C(F)(F)C(F)(F)C(F)(F)C(F)(F)F [PFOS, perfluorooctane sulfonate] | – | – | – | – | – | 130 µM | – |
| O=S(=O)(O)C(F)(F)C(F)(F)C(F)(F)C(F)(F)C(F)(F)C(F)(F)F [PFHxS, perfluorohexane sulfonate] | – | – | – | – | – | 112 µM | – |
| O=C(O)C(F)(F)C(F)(F)C(F)(F)F [PFBA, perfluorobutanoic acid] | – | – | – | – | – | – | serum elimination half-life [5]: a few days; serum elimination half-life [7]: a few hours |
| O=C(O)C(F)(F)C(F)(F)C(F)(F)C(F)(F)C(F)(F)C(F)(F)C(F)(F)C(F)(F)C(F)(F)F [PFDA, Perfluorodecanoic acid] | 9.5 µM | 3.2 (3.0–3.4) nmol/mg·min | 2.5 (2.2–3.0) nmol/mg·min | competitive inhibitors | can transport | – | inhibition of NTCP-mediated taurocholate uptake [1]: 60–70%; Ki [2, 8]: 8.3 µM; saturation of sodium-dependent uptake ([3]; concentration range tested up to 300 mM (so in the source), 1 min): did not reach saturation |
| O=C(O)C(F)(F)C(F)(F)C(F)(F)C(F)(F)C(F)(F)C(F)(F)C(F)(F)C(F)(F)C(F)(F)C(F)(F)F [perfluoroundecanoic acid] | – | – | – | – | – | – | statistically significant inhibition of taurocholate uptake [1]: statistically significant inhibitors at 10 μM, but to a lesser extent |
